Patent US12319675B2 (Artax Biopharma Inc., priority 2018, dated 2025)

Key:
[1] = Microsomal stability assay, human; assay type: in vitro ADME; conditions: human microsomes, read-out: Microsomal Stability (T1/2 min) Human
Procedure: (§1) Microsomal stability assays were performed using mouse, rat, and human […] according to methods well-known in the art. Microsomal stability results are shown in Table 2 for selected compounds of the invention. The compound numbers correspond to the compound numbers in Table 1. […] “N/A” indicates not assayed.

[2] = tested on: CD3 mediated phosphorylation of ZAP70 in Jurkat cells; test: CD3 mediated phosphorylation of ZAP70 in Jurkat cells (HTRF); assay type: cell-based; conditions: Homo sapiens, Jurkat cells stimulated with 20 μg/mL anti-CD3 antibody; for Emax: maximum inhibition, read-out: pZAP70 Inhibition - Maximum Percent Inhibition (% Inhibition); for IC50: read-out: pZAP70 Inhibition IC50
Procedure: Inhibition of CD3 mediated phosphorylation of ZAP70 in Jurkat cells was measured by a cellular based Homogeneous Time-Resolved Fluorescence (HTRF) assay utilizing a Total ZAP-70 HTRF kit.
Briefly, Jurkat cells (˜1.3×10^6 cells/mL) were harvested on the day of experimentation. Cells were washed with PBS and resuspended in Assay Buffer (RPMI 1640 media plus 10% FBS) and counted.
Jurkat cells were seeded in Assay media at a total volume of 4 μL/well (40K cells/well) in a 384-low volume white flat bottom plate. The cells were then incubated at 37° C./5% CO2 for 30 minutes. The cells were then treated in duplicate with test compounds (3×) and reference compounds (3×) in a total volume of 4 μL, respectively. A compound dilution scheme is exemplified in FIG. 1.
The plate was then transferred to an incubator maintained at 37° C./5% CO2 for 2 minutes. Following incubation, cells were stimulated with 20 μg/mL of anti-CD3 antibody (1 mg/mL stock) and assay media was used to bring the total well volume 4 μL/well. The plate was then transferred to the incubator maintained at 37° C./5% CO2 for 2.5 minutes. Following incubation, 4 μL of lysis buffer (4×) provided in the kit was added to each well. The plate was then incubated at RT for 1 hour with gentle shaking. Following incubation, 4 μL of detection mix was added to each well and the plate was sealed with a plate sealer and left overnight at RT in the dark.
The Envision reader was set-up for Eu^3+ cryptate and fluorescence emission was read at two different wavelengths (620 nm and 665 nm). • Excitation filter: UV2(TRF) 320 nm • Emission filter: 665 nm • 2nd Emission filter: Europium 615 nm • Measurement height (mm): 6.5 • Excitation light (%): 100 • Delay (μs): 50 • Window time (μs): 400 • Time between flashes (μs): 2000 • Number of flashes: 100 • Number of flashes for 2nd detector: 100
The data is represented by the signal form the two wavelengths:
The ratio of the signal is calculated for each individual well:
The data was plotted using Graph Pad Prism. The significance between untreated vs. treated groups was assessed by One-way ANOVA and Bonferroni posttest comparing all columns in the graph.
ZAP70 IC50 results are shown in Table 6 for select compounds of the invention. The compound numbers correspond to the compound numbers in Table 1. […] “ND” indicates not determined.
ZAP70 percent maximum inhibition results are shown in Table 7 for select compounds of the invention. The compound numbers correspond to the compound numbers in Table 1.

[3] = Microsomal stability assay, rat; assay type: in vitro ADME; conditions: rat microsomes, read-out: Microsomal Stability (T1/2 min) Rat
Procedure: as §1

[4] = Microsomal stability assay, mouse; assay type: in vitro ADME; conditions: mouse microsomes, read-out: Microsomal Stability (T1/2 min) Mouse
Procedure: as §1

[5] = biological target: Nck SH3 domain interaction with the proline rich sequence of TCR subunit CD3ε (Homo sapiens, UniProt P16333); test: Competitive binding, biosensor with Interferometric Optical Detection Method (IODM); conditions: ratio of 1:1 between Nck SH3 domain and inhibitors; biotinylated CD3ε peptide on sensing surface
Procedure: Inhibition of Nck SH3 domain interaction with the proline rich sequence of TCR subunit CD3ε was measured by optical read-out of a biosensor based on the Interferometric Optical Detection Method (IODM), using established methods (WO 2010/026269; WO 2014/020159; Laguna, M. et al., Sensors, 2015, 15(8):19819-29; and Holgado, M. et al., Sensors, 2014, 14(2): 3675-89).
Briefly, a Biophotonic Cell (BICELL) based on Fabry-Perot interferometers was used as the photonic transducer. The BICELL was fabricated using SU8 in cyclopentanone according to known methods (e.g., Laguna, M. F. et al., Sensors, 2014, 14(4): 6695-6700). Cured film was then treated with 95% sulfuric acid for 10 seconds. Streptavidin was then immobilized on the sensing surface in phosphate buffered saline (PBS; pH 7.4) over 20 min at 37° C. followed by blocking of the surface with 5% skin milk in PBS (pH 7.4). Biotinylated CD3ε peptide (SEQ ID NO: 001) in PBS (pH 7.4) was incubated with the streptavidin coated film to biofunctionalize the sensing surface (20 min at 37° C.).
Competitive binding assays were performed to determine the affinity reaction of inhibitors. The screening was carried out using a ratio of 1:1 between Nck SH3 domain and inhibitors. The optical readout of the biosensor was accomplished by a Fourier transform visible-infrared (FT-VIS-IR) spectrometer. Competitive binding results are shown in Table 3 for selected compounds of the invention. The compound numbers correspond to the compound numbers in Table 1. Compounds having a designation of “A” provide an Increased Relative Optical Power (ΔIROP) of less than or equal to thirty percent (≤30%); compounds having a designation of “B” provide a ΔIROP of between thirty and fifty percent (>30% to ≤50%); compounds having a designation of “C” provide an ΔIROP of between fifty and seventy percent (>50% to ≤70%); and compounds having a designation of “D” provide a ΔIROP of greater than seventy percent (>70%).

| half-life [1] [min] | IC50 [2] [nM] | half-life [3] [min] | half-life [4] [min] | Structure (SMILES) | Emax [2] [%] | ΔIROP (Increased Relative Optical Power) [5] |
| --- | --- | --- | --- | --- | --- | --- |
| > 30 | 1 to 10 | > 30 | > 30 | O=C(O)CCOc1ccc2c(c1)C(c1ccc(F)cc1)=C(C(=O)N1CCCC1)CO2 [Compound I-40, 3-((4-(4-fluorophenyl)-3-(pyrrolidine-1-carbonyl)-2H-chromen-6-yl)oxy)propanoic acid] | 30 to 40 | D (a ΔIROP of greater than seventy percent (>70%)) |
| 10 to 30 | 1 to 10 | < 10 | < 10 | COc1ccc2c(c1)C(c1ccc(Cl)cc1)=C(CN1CCCC1)CO2 [Compound I-19] | > 50 | C (an ΔIROP of between fifty and seventy percent (>50% to ≤70%)) |
| < 10 | 1 to 10 | < 10 | < 10 | CC(C)c1ccc2c(c1)C(c1ccc(F)cc1)=C(C(=O)N1CCN(C)CC1)CO2 [Compound I-24] | 40 to 50 | C (an ΔIROP of between fifty and seventy percent (>50% to ≤70%)) |
| < 10 | 1 to 10 | < 10 | < 10 | CN1CCN(C(=O)C2=C(c3ccc(F)cc3)c3ccccc3OC2)CC1 [Compound I-44] | 30 to 40 | D (a ΔIROP of greater than seventy percent (>70%)) |
| 10 to 30 | < 1 | < 10 | < 10 | CC(C)Oc1ccc2c(c1)C(c1ccc(F)cc1)=C(CN1CCCC1)CO2 [Compound I-14] | 30 to 40 | C (an ΔIROP of between fifty and seventy percent (>50% to ≤70%)) |
| 10 to 30 | < 1 | < 10 | < 10 | COc1ccc2c(c1)C(c1ccc(C(F)(F)F)cc1)=C(CN1CCCC1)CO2 [Compound I-20] | 40 to 50 | B (a ΔIROP of between thirty and fifty percent (>30% to ≤50%)) |
| 10 to 30 | < 1 | < 10 | < 10 | CC(C)c1ccc2c(c1)C(c1ccc(F)cc1)=C(CN1CCCC1)CO2 [Compound I-15] | 30 to 40 | C (an ΔIROP of between fifty and seventy percent (>50% to ≤70%)) |
| 10 to 30 | < 1 | < 10 | < 10 | CN1CCN(C(=O)C2=C(c3ccc(F)cc3)c3cc(OC(F)F)ccc3OC2)CC1 [Compound I-3] | ≤ 30 | B (a ΔIROP of between thirty and fifty percent (>30% to ≤50%)) |
| 10 to 30 | – | < 10 | < 10 | COc1ccc2c(c1)C(c1ccc(C#N)cc1)=C(CN1CCCC1)CO2 [Compound I-22] | ≤ 30 | B (a ΔIROP of between thirty and fifty percent (>30% to ≤50%)) |
| 10 to 30 | – | > 30 | > 30 | Fc1ccc(C2=C(c3nc(-c4ccccc4)no3)COc3ccc(OCC4CC4)cc32)cc1 [Compound I-12] | ≤ 30 | C (an ΔIROP of between fifty and seventy percent (>50% to ≤70%)) |
| 10 to 30 | 1 to 10 | < 10 | < 10 | COc1ccc2c(c1)C(c1cccc(F)c1)=C(CN1CCCC1)CO2 [Compound I-21] | 40 to 50 | C (an ΔIROP of between fifty and seventy percent (>50% to ≤70%)) |
| 10 to 30 | 1 to 10 | < 10 | < 10 | [2H]C([2H])([2H])Oc1ccc2c(c1)C(c1ccc(F)cc1)=C(CN1CCCC1)CO2 [Compound I-13] | 40 to 50 | A (an Increased Relative Optical Power (ΔIROP) of less than or equal to thirty percent (≤30%)) |
| > 30 | 1 to 10 | > 30 | > 30 | O=C(O)CCOc1ccc2c(c1)C(c1ccc(F)cc1)=C(CN1CCCC1)CO2 [Compound I-33, 3-((4-(4-fluorophenyl)-3-(pyrrolidin-1-ylmethyl)-2H-chromen-6-yl)oxy)propanoic Acid] | > 50 | A (an Increased Relative Optical Power (ΔIROP) of less than or equal to thirty percent (≤30%)) |
